Data on 17 molecules can be found in patent publication US12649733B2, “3,6-diamino-pyridazin-3-yl derivatives, pharmaceutical compositions containing them and their uses as pro-apoptotic agents” (LES LABORATOIRES SERVIER, priority 2019, dated 2026).

For orientation: IC50 means the concentration that inhibits the measured activity by half. A low value points to greater potency in that assay. A word on the Ki: it is a measure of affinity in units of concentration, obtained from inhibition or displacement.

The subject of one assay is H146 cells. As to the kind of experiment: H146 cell viability, MTT assay. The format is cell-based. Conditions: Homo sapiens, NCI-H146, 48 h, 48 h exposure. Summed up:
(§1)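 Cells grown in RPMI 1640 with 10% heat-inactivated FBS at 37° C, 5% CO2, exposed 48 h to nine 3.16-fold serial compound dilutions in triplicate. MTT added for 4 h, SDS/HCl solubilisation overnight, absorbance at 540 nm; IC50 by four-parameter fit.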
Background: Formazan colour is commonly taken as a measure of viable cells.

The test system of a further assay is MOLT-4 cells. Kind of assay: MOLT-4 cell viability, MTT assay. It is filed as cell-based. Conditions: Homo sapiens, MOLT-4, 48 h, 48 h exposure. The method in brief:
as §1

For the next assay, the target named is T1, Bcl-xL protein (Homo sapiens, UniProt Q07817, N197C).
T1 construct: (2-197)[N197C]; His-His (two His8 stretches joined by a Gly/Ala/Ser/Thr linker)
As to the kind of experiment: Fluorescence quenching assay (PUMA peptide displacement). The format is binding. The settings on record: 1 nM protein, 400 nM peptide, 2 hours at 23° C.; KI determined from IC50. The method in brief:
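Displacement of a TQ5WS-quencher-labelled PUMA peptide (400 nM) from Cy5-labelled His-tagged Bcl-xL 2-197 N197C (1 nM) raises fluorescence. An 11-point compound dilution was incubated 2 h at 23 °C in HEPES 10 mM, NaCl 150 mM, 0.05% Tween 20, pH 7.4, 5% DMSO. Fluorescence was read at Ex 620/Em 680 nm, and KI was derived from IC50.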

T1 sequence (Q07817 2-197 N197C): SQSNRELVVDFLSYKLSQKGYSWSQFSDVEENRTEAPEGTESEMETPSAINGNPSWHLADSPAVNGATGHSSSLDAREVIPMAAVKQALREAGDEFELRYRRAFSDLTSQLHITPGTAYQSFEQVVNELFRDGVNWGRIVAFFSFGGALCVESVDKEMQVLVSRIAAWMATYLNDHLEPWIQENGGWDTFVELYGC

With `Cc1cc(N(C)c2nc(C(=O)O)c(CCCOc3ccc(CCCN(C)C)cc3F)s2)nnc1Nc1nc2ccccc2s1` [Example 214, 2-[[6-(1,3-Benzothiazol-2-ylamino)-5-methyl-pyridazin-3-yl]-methyl-amino]-5-[3-[4-[3-(dimethylamino)propyl]-2-fluoro-phenoxy]propyl]thiazole-4-carboxylic acid], the values for the concentration for half-maximal inhibition (IC50) in the assay with H146 cells and in the assay with MOLT-4 cells were 26.7 nM and 22.5 nM, respectively. For the same molecule, on Bcl-xL protein, the inhibition constant (Ki) was 0.004 nM.

Consider `Cc1cc(N(CCCC(O)C[N+]23CCC(CC2)CC3)c2nc(C(=O)[O-])c(CCCOc3ccc(C#CCN(C)C)cc3F)s2)nnc1Nc1nc2ccccc2s1` (stereo not drawn) [Example 215, 2-[[6-(1,3-Benzothiazol-2-ylamino)-5-methyl-pyridazin-3-yl]-(4-hydroxy-5-quinuclidin-1-ium-1-yl-pentyl)amino]-5-[3-[4-[3-(dimethylamino)prop-1-ynyl]-2-fluoro-phenoxy]propyl]thiazole-4-carboxylate], for which the concentration for half-maximal inhibition (IC50) with H146 cells was 174 nM; in the assay on MOLT-4 cells it was 406 nM. On Bcl-xL protein, the Ki was determined as 0.0031 nM.

Regarding `Cc1cc(N(CCCC(O)C[N+]23CCN(CC2)CC3)c2nc(C(=O)[O-])c(CCCOc3ccc(C#CCN(C)C)cc3F)s2)nnc1Nc1nc2ccccc2s1` (stereo not drawn) [Example 216, 2-[[5-(1-aza-4-azoniabicyclo[2.2.2]octan-4-yl)-4-hydroxy-pentyl]-[6-(1,3-benzothiazol-2-ylamino)-5-methyl-pyridazin-3-yl]amino]-5-[3-[4-[3-(dimethylamino)prop-1-ynyl]-2-fluoro-phenoxy]propyl]thiazole-4-carboxylate], the half-inhibitory concentration (IC50) in the assay on H146 cells amounted to 222 nM; with MOLT-4 cells, 146 nM. For the same molecule, the inhibitory constant (Ki) on Bcl-xL protein worked out at 0.004 nM.

Regarding `Cc1cc(N(CCCC(O)C[N+]2(C)CCOCC2)c2nc(C(=O)[O-])c(CCCOc3ccc(C#CCN(C)C)cc3F)s2)nnc1Nc1nc2ccccc2s1` (stereo not drawn) [Example 217, 2-[[6-(1,3-Benzothiazol-2-ylamino)-5-methyl-pyridazin-3-yl]-[4-hydroxy-5-(4-methylmorpholin-4-ium-4-yl)pentyl]amino]-5-[3-[4-[3-(dimethylamino)prop-1-ynyl]-2-fluoro-phenoxy]propyl]thiazole-4-carboxylate], the results for the IC50 in the assay on H146 cells and in the assay with MOLT-4 cells were 86.2 nM and 180 nM, respectively. Also, at Bcl-xL protein, the inhibitory constant (Ki) was found to be 0.0041 nM.

Consider `Cc1cc(N(C)c2nc(C(=O)O)c(CCCOc3ccc(C#CCNCC[N+](C)(C)CCCS(=O)(=O)[O-])cc3F)s2)nnc1Nc1nc2ccccc2s1` [Example 218, 3-[2-[3-[4-[3-[2-[[6-(1,3-Benzothiazol-2-ylamino)-5-methyl-pyridazin-3-yl]-methyl-amino]-4-carboxy-thiazol-5-yl]propoxy]-3-fluoro-phenyl]prop-2-ynylamino]ethyl-dimethyl-ammonio]propane-1-sulfonate], for which the concentration for half-maximal inhibition (IC50) in the assay on H146 cells is 891 nM; in the assay with MOLT-4 cells, 270 nM. Besides, the Ki on Bcl-xL protein is 0.0012 nM.

For `Cc1cc(N(CCCC(O)C[N+]2(C)CCCCC2)c2nc(C(=O)[O-])c(CCCOc3ccc(C#CCN(C)C)cc3F)s2)nnc1Nc1nc2ccccc2s1` (stereo not drawn) [Example 220, 2-[[6-(1,3-Benzothiazol-2-ylamino)-5-methyl-pyridazin-3-yl]-[4-hydroxy-5-(1-methylpiperidin-1-ium-1-yl)pentyl]amino]-5-[3-[4-[3-(dimethylamino)prop-1-ynyl]-2-fluoro-phenoxy]propyl]thiazole-4-carboxylate], the IC50 in the assay with H146 cells worked out at 221 nM; in the assay with MOLT-4 cells, 984 nM. Further, the Ki at Bcl-xL protein was 0.0035 nM.

With `Cc1cc(N(CCCC(O)C[N+]2(C)CCN(C)CC2)c2nc(C(=O)[O-])c(CCCOc3ccc(C#CCN(C)C)cc3F)s2)nnc1Nc1nc2ccccc2s1` (stereo not drawn) [Example 221, 2-[[6-(1,3-Benzothiazol-2-ylamino)-5-methyl-pyridazin-3-yl]-[5-(1,4-dimethylpiperazin-1-ium-1-yl)-4-hydroxy-pentyl]amino]-5-[3-[4-[3-(dimethylamino)prop-1-ynyl]-2-fluoro-phenoxy]propyl]thiazole-4-carboxylate], the IC50 in the assay with H146 cells came to 94.4 nM; in the assay with MOLT-4 cells it was 29.5 nM. In addition, at Bcl-xL protein, the Ki amounted to 0.0017 nM.

Regarding `Cc1cc(N(C)c2nc(C(=O)[O-])c(CCCOc3ccc(C#CCNCC[N+](C)(C)C)cc3F)s2)nnc1Nc1nc2ccccc2s1` [Example 222, 2-[3-[4-[3-[2-[[6-(1,3-Benzothiazol-2-ylamino)-5-methyl-pyridazin-3-yl]-methyl-amino]-4-carboxy-thiazol-5-yl]propoxy]-3-fluoro-phenyl]prop-2-ynylamino]ethyl-trimethyl-ammonium], the IC50 with H146 cells was 32.4 nM; in the assay with MOLT-4 cells it was 61 nM. The Ki on Bcl-xL protein was 0.0014 nM.

Regarding `Cc1cc(N(C)c2nc(C(=O)O)c(CCCOc3ccc(C#CCNCCN(C)C)cc3F)s2)nnc1Nc1nc2ccccc2s1` [Example 223, 2-[[6-(1,3-Benzothiazol-2-ylamino)-5-methyl-pyridazin-3-yl]-methyl-amino]-5-[3-[4-[3-[2-(dimethylamino)ethylamino]prop-1-ynyl]-2-fluoro-phenoxy]propyl]thiazole-4-carboxylic acid], the half-inhibitory concentration (IC50) with H146 cells came out at 7.46 nM; in the assay on MOLT-4 cells it was 3.13 nM. Further, on Bcl-xL protein, the inhibition constant Ki was determined as 0.0018 nM.

Turning to `CNCC#Cc1ccc(OCCCc2sc(N(CCCCCC[N+](C)(C)C)c3cc(C)c(Nc4nc5ccccc5s4)nn3)nc2C(=O)[O-])c(F)c1` [Example 224, 2-[[6-(1,3-Benzothiazol-2-ylamino)-5-methyl-pyridazin-3-yl]-[6-(trimethylammonio)hexyl]amino]-5-[3-[2-fluoro-4-[3-(methylamino)prop-1-ynyl]phenoxy]propyl]thiazole-4-carboxylate], the concentration for half-maximal inhibition (IC50) amounted to 1160 nM in the assay on H146 cells and 2180 nM in the assay on MOLT-4 cells. Further, the Ki at Bcl-xL protein was 0.002 nM.

Regarding `Cc1cc(N(CCCCC[N+](C)(C)CCCO)c2nc(C(=O)[O-])c(CCCOc3ccc(C#CCN(C)C)cc3F)s2)nnc1Nc1nc2ccccc2s1` [Example 225, 2-[[6-(1,3-Benzothiazol-2-ylamino)-5-methyl-pyridazin-3-yl]-[5-[3-hydroxypropyl(dimethyl)ammonio]pentyl]amino]-5-[3-[4-[3-(dimethylamino)prop-1-ynyl]-2-fluoro-phenoxy]propyl]thiazole-4-carboxylate], the IC50 is 351 nM with H146 cells and 1080 nM in the assay on MOLT-4 cells. The Ki on Bcl-xL protein amounted to 0.0035 nM.

For `CNCC#Cc1ccc(OCCCc2sc(N(CCCCC[N+](C)(C)CCO)c3cc(C)c(Nc4nc5ccccc5s4)nn3)nc2C(=O)[O-])c(F)c1` [Example 229, 2-[[6-(1,3-Benzothiazol-2-ylamino)-5-methyl-pyridazin-3-yl]-[5-[2-hydroxyethyl(dimethyl)ammonio]pentyl]amino]-5-[3-[2-fluoro-4-[3-(methylamino)prop-1-ynyl]phenoxy]propyl]thiazole-4-carboxylate], the half-inhibitory concentration (IC50) is 437 nM in the assay on H146 cells and 1640 nM in the assay on MOLT-4 cells. Moreover, at Bcl-xL protein, the inhibition constant Ki worked out at 0.0014 nM.

`CNCC#Cc1ccc(OCCCc2sc(N(CCCCC[N+](C)(C)CCCO)c3cc(C)c(Nc4nc5ccccc5s4)nn3)nc2C(=O)[O-])c(F)c1` [Example 230, 2-[[6-(1,3-Benzothiazol-2-ylamino)-5-methyl-pyridazin-3-yl]-[5-[3-hydroxypropyl(dimethyl)ammonio]pentyl]amino]-5-[3-[2-fluoro-4-[3-(methylamino)prop-1-ynyl]phenoxy]propyl]thiazole-4-carboxylate]: the 50% inhibitory concentration (IC50) in the assay with H146 cells is 1380 nM; in the assay with MOLT-4 cells, 2180 nM. In addition, at Bcl-xL protein, the Ki was 0.0014 nM.

For `CNCC#Cc1ccc(OCCCc2sc(N(CCCCC[N+](C)(C)CC(=O)O)c3cc(C)c(Nc4nc5ccccc5s4)nn3)nc2C(=O)[O-])c(F)c1` [Example 231, 2-[[6-(1,3-Benzothiazol-2-ylamino)-5-methyl-pyridazin-3-yl]-[5-[carboxymethyl(dimethyl)ammonio]pentyl]amino]-5-[3-[2-fluoro-4-[3-(methylamino)prop-1-ynyl]phenoxy]propyl]thiazole-4-carboxylate], the 50% inhibitory concentration (IC50) with H146 cells was 1610 nM; in the assay on MOLT-4 cells, 1190 nM. The Ki at Bcl-xL protein came out at 0.0013 nM.

As to `Cc1cc(N(C)c2nc(C(=O)O)c(CCCOc3ccc(C#CCN(C)C)cc3)s2)nnc1Nc1nc2ccccc2s1` [Example 233, 2-[[6-(1,3-Benzothiazol-2-ylamino)-5-methyl-pyridazin-3-yl]-methyl-amino]-5-[3-[4-[3-(dimethylamino)prop-1-ynyl]phenoxy]propyl]thiazole-4-carboxylic acid], the results for the half-maximal inhibitory concentration (IC50) with H146 cells and in the assay on MOLT-4 cells were 2.55 nM and 0.879 nM, respectively. The inhibitory constant (Ki) at Bcl-xL protein turned out to be 0.0043 nM.

`Cc1cc(N(C)c2nc(C(=O)O)c(CCCOc3ccc(C45CC(CN(C)C)(C4)C5)cc3)s2)nnc1Nc1nc2ccccc2s1` [Example 234, 2-[[6-(1,3-Benzothiazol-2-ylamino)-5-methyl-pyridazin-3-yl]-methyl-amino]-5-[3-[4-[1-[(dimethylamino)methyl]-3-bicyclo[1.1.1]pentanyl]phenoxy]propyl]thiazole-4-carboxylic acid]: the half-maximal inhibitory concentration (IC50) is 15 nM with H146 cells and 3.8 nM in the assay with MOLT-4 cells. The Ki on Bcl-xL protein was 0.0016 nM.

Regarding `CNCC#Cc1ccc(OCCCc2sc(N(CCC[N+](C)(C)CCCS(=O)(=O)[O-])c3cc(C)c(Nc4nc5ccccc5s4)nn3)nc2C(=O)O)c(F)c1` [Example 235, 3-[3-[[6-(1,3-Benzothiazol-2-ylamino)-5-methyl-pyridazin-3-yl]-[4-carboxy-5-[3-[2-fluoro-4-[3-(methylamino)prop-1-ynyl]phenoxy]propyl]thiazol-2-yl]amino]propyl-dimethyl-ammonio]propane-1-sulfonate], the IC50 in the assay on H146 cells and with MOLT-4 cells was 413 nM each time. Moreover, the inhibitory constant (Ki) at Bcl-xL protein was 0.0011 nM.
